# Data taken from patent US20230201382A1, “RADIOLIGANDS FOR MYELIN” (CASE WESTERN RESERVE UNIVERSITY, priority 2016, published 2023).
# Tests used:
# myelin [1] = test: In vitro tissue staining and fluorescent intensity ratio, mouse brain sections (Example 1); format: binding; settings: 1 mM staining solution, 25 min
# Protocol: Wild-type mice (20-22 g, 8 weeks old) were deeply anesthetized and perfused transcardially with precooled saline (4° C., 10 mL/min for 1 min followed by 7 mL/min for 6 min) followed by fixation with precooled 4% PFA in PBS (4° C., 10 mL/min for 1 min followed by 7 mL/min for 6 min). Brain tissues were then removed, postfixed by immersion in 4% PFA overnight, dehydrated in 10%, 20%, and 30% sucrose solution, embedded in a freezing compound (OCT, Fisher Scientific, Suwanee, Ga.), and sectioned at […] with a cryostat (Thermo HM525, Thermo Fisher Scientific Inc., Chicago, Ill., USA). […] Sections were then examined under a microscope (Leica DM4000B, Leica Microsystem Inc., Buffalo Grove, Ill., USA) equipped for fluorescence (DFC7000T), and images of the stained mouse whole brain sections were acquired with the same exposure time. ImageJ software was then used to quantify pixel intensity values on 6 sections of each tested compound. […] Images were analyzed by two experienced individuals. The FIR of white matter to gray matter were then calculated.
# In vitro Staining and Assay of the Fluorescent Intensity. […] Next, we selected a representative region in the genus of the corpus callosum (gcc) and a representative region in the subcortical gray matter (cortex) and calculated the fluorescent intensity ratio (FIR) between both regions (FIG. 2A). […]
# myelin [2] = test: In vitro detection of focal demyelination, LPC rat model; format: binding; settings: LPC-induced focal demyelination, rat brain sections
# Protocol: Sprague-Dawley female rats (220-250 g, 8 weeks old) were anesthetized and positioned in a stereotaxic frame (Stoelting). A small incision was made in the scalp, and the corpus callosum was targeted using the following stereotaxic coordinates, relative to bregma: anterior-posterior, 0.0 mm; medial-lateral, 2.0 mm; and dorsal-ventral, 3.4 mm. A small hole was drilled in the skull, and a 26S-gauge needle attached to a 10 μL Hamilton Syringe was lowered into the corpus callosum according to the dorsal-ventral coordinate. A microinjector pump (Stoelting) controlled the infusion of 6 μL of lysolecithin (LPC, 0.1% in saline) at a rate of 0.25 μL/min, after which the needle was left in place for 2 min in order to prevent liquid reflux out of the brain parenchyma. The incision was then closed using 5-0 Ethicon sutures, and the animals were allowed to recover on a heating pad. After 5-7 days, the animals were ready for study.
# Five days after surgery, the rats were anesthetized and perfused with saline followed by 4% PFA. […] Sections were then examined under a microscope (Leica DM4000B, Leica Microsystem Inc., Buffalo Grove, Ill., USA) equipped for fluorescence (DFC7000T), and images of the stained mouse whole brain sections were acquired with the same exposure time. […]
# myelin [3] = test: In situ staining after tail vein injection (Example 2); format: in vivo, mouse; settings: 1.0 mg (50 mg/kg) tail vein, WT mice, 1 h
# Protocol: Wild-type mice were administered the newly synthesized compounds (40 mg/kg) via tail vein injection, and 30-60 min later the mice were perfused transcardially with saline followed by 4% PFA in PBS. Brains and spinal cords were then removed, postfixed by immersion in 4% PFA overnight, dehydrated in 30% sucrose solution, cryostat sectioned at 100 μm, mounted on superfrost slides, and images were acquired directly using a Leica fluorescent microscope.
# Following the in vitro studies, we then investigated the ability of compound 21 to readily enter the brain and bind to myelin in situ. A dose of 1.0 mg of compound 21 (50 mg/kg) was administered via the tail vein to wild-type (WT) mice. One hour after injection, the mice were perfused with saline followed by 4% paraformaldehyde (PFA) and the brain and spinal cord were removed and sectioned. The distribution of compound 21 was then directly examined under a fluorescent microscope.
# myelin [4] = test: Quantitative microPET/CT imaging in WT rats (Example 2); format: in vivo, rat
# Protocol: (§1) For better anatomic localization, CT coregistration was applied.
# Following radiosynthesis, the pharmacokinetic profile of [^18F]21 was fully characterized by quantitative microPET/CT imaging in WT rats (n=3). […] The brain radioactivity peaked at 3 min postinjection followed by rapid clearance before reaching a plateau at 40-60 min postinjection.
# myelin [5] = test: In situ autoradiography of mouse brain (Example 2); format: in vivo; settings: mouse brain coronal sections
# Protocol: Wild-type mice were euthanized at 30 min post iv injection of [^18F]21 (111 MBq, 3.0 mCi). The brains were rapidly removed, placed in OCT embedding medium, and frozen at −20° C. After reaching equilibrium at this temperature, the brains were coronally sectioned at 60 μm on a cryostat and mounted on superfrost slides. After drying by air at room temperature, the slides were put in a cassette and exposed for 20 min to film to obtain images.
# To validate the PET results and confirm that the PET signals were indeed from specific binding to myelin, we conducted ex vivo autoradiography in the mouse brain following administration of [^18F]21 through tail vein injections. After 1 h, the mouse brain was dissected for coronal tissue sectioning. […] Thus, combination of in situ autoradiography and PET imaging confirmed that [^18F]21 binds specifically to myelin in vivo.
# myelin [6] = test: Quantitative microPET/CT imaging in Shiverer and WT mice; format: in vivo, mouse; settings: SUVs from 40 to 60 min
# Protocol: as §1
# To further evaluate the in vivo binding specificity of [^18F]21, we investigated the pharmacokinetic profiles of [^18F] 21 in a Shiverer mouse model that is deficient in myelin in the brain. Thus, the pharmacokinetic profiles of [^18F]21 were quantitatively compared between Shiverer mice (C3Fe.SWV-Mbpshi/J, n=2) and age-matched WT mice (CB57J, n=2).
# Dynamic emission scans were acquired for 60 min in 3D list mode immediately after [^18F]21 (0.3 mCi each mouse, 11.1 MBq) was administered. The brain uptake of [^18F]21 was lower in the Shiverer brain than in the WT littermates (1.25 vs 1.64). After the brain concentration of [^18F]21 reached a plateau, the SUVs from 40 to 60 min were summarized and compared.
# myelin [7] = test: Quantitative microPET/CT imaging of spinal cord, rat SCI model; format: in vivo
# Protocol: Sprague-Dawley female rats (220-250 g, 8 weeks old) were anesthetized and a restricted laminectomy was conducted to expose the dorsal surface of T13. The vertebral column between T12 and L1 was then stabilized with clamps and forceps fixed to the base of an Infinite Horizon impact device. The midpoint of T13 was impacted with a force of 250 kDyn using a 2.5 mm stainless steel impactor tip, which was used to induce a moderately severe contusive injury to the spinal cord. The musculature was then sutured over the laminectomy site and the skin closed with wound clips followed by subsequent treatment with Marcaine at the incision site. The force/displacement graph was used to monitor impact consistency. After surgery, the animals were carefully monitored daily for pain and body weight with manual bladder expression 2-3 times daily to stimulate reflex voiding until the animals could urinate independently.
# as §1
# So far, imaging of the spinal cord remains a great challenge. […] Next, we asked whether [18F]21 PET is capable of in vivo imaging of myelin deficiency or myelin damage in living animal models. We conducted [^18F]21-PET imaging in a rat model of thoracic contusive SCI. In this model, the contusion was made at T13 to introduce demyelination. In vivo [^18F]21 PET imaging was performed before (as a baseline scan) and 1 day after contusion. The uptake of [^18F]21 in every spine segment was then normalized to the average spine uptake. […] After microPET/CT imaging, we conducted in situ histological staining of the spinal cord 60 min after injection of nonlabeled compound 21 through the tail vein.
structure (smiles),measurement,setting,value
"CC(C)Nc1ccc(/C=C/c2ccc(N)c(OCCF)c2)cc1 [Compound 35, (E)-4-(4-Amino-3-(2-fluoroethoxy)styryl)-N-isopropylaniline]",fluorescent intensity ratio (FIR) white matter (gcc) vs gray matter (cortex),myelin [1],> 2
"CNc1ccc(/C=C/c2ccc(NCc3cn(CCF)nn3)cc2)cc1 [Compound 21, (E)-N-((1-(2-Fluoroethyl)-1H-1,2,3-triazol-4-yl)methyl)-4-(4-(methylamino)styryl)aniline]",detection of demyelinated lesion by fluorescent staining,myelin [2],capable of detecting the demyelinated focal lesion by fluorescent staining
same,brain and spinal cord entry and myelin binding in situ,myelin [3],readily entered the brain and spinal cord and localized in all the myelinated regions in proportion to the myelin content
same,brain and spinal cord entry and myelin binding in situ,myelin [3]; listed as TAFDAS,readily penetrates the BBB and binds to myelin membranes in the brain and spinal cord
CNc1ccc(/C=C/c2ccc(NCc3cn(CC[18F])nn3)cc2)cc1 [[^18F]21],uptake in the brain,myelin [4],high uptake in the brain
same,time of peak brain radioactivity,myelin [4]; postinjection,3 min
same,labeling in ex vivo autoradiography,myelin [5],distinctly labeled the corpus callosum
same,"uptake at 40-60 min, Shiverer vs control",myelin [6],significantly decreased compared to the control mouse brain
same,uptake at L1 normalized to average spine uptake,myelin [7]; 1 day post-T13 contusion,1.08
same,uptake at T12 normalized to average spine uptake,myelin [7]; 1 day post-T13 contusion,0.99
same,uptake at T13 normalized to average spine uptake,myelin [7]; 1 day post-T13 contusion (SCI group),0.81
same,uptake at L1 normalized to average spine uptake,myelin [7]; before contusion (baseline),1.05
same,uptake at T12 normalized to average spine uptake,myelin [7]; before contusion (baseline),0.99
same,uptake at T13 normalized to average spine uptake,myelin [7]; before contusion (baseline),1.02
"CNc1ccc(/C=C/c2ccc(N)c(OCCF)c2)cc1 [Compound 32, (E)-4-(4-Amino-3-(2-fluoroethoxy)styryl)-N-methylaniline]",fluorescent intensity ratio (FIR) white matter (gcc) vs gray matter (cortex),myelin [1],> 2
